Measured values reported in US20230203060A1 (GENFLEET THERAPEUTICS (SHANGHAI) INC., priority 2020, published 2023).

Assays:
[1] = test system: phosphorylated ERK downstream of KRAS G12C in MIA PaCa2 cells; experiment: Cell p-ERK detection experiment (HTRF) in MIA PaCa2; type: cell-based, human; settings: Homo sapiens, MIA PaCa-2, 2 h, MIA PaCa2 cells, 2 hours with compound, Advance ERK phospho-T202/Y204 HTRF kit; read-out: p-ERK IC50
Summary of the method: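 KRAS G12C-mutant MIA PaCa2 cells (2.5E4 per well, overnight) exposed 2 h to a 3.16-fold compound dilution series at 0.1% DMSO. Lysates probed 4 h with HTRF antibodies to ERK phospho-T202/Y204; inhibition versus DMSO control and blank, IC50 by four-parameter fit.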

[2] = test system: KRAS G12C mutant MIA PaCa-2 cells; experiment: Cell proliferation inhibition experiment, 3D spheroid, CellTiter-Glo, MIA PaCa-2; type: cell-based, human; settings: Homo sapiens, MIA PaCa-2, 120 h, 3D cell model in 384-well spheroid plate, 5 days, CellTiter-Glo; read-out: MIA-PaCa2 IC50
Summary of the method: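 200 MIA PaCa-2 cells/well grown overnight as 3D spheroids, then exposed to 3.16-fold compound dilutions (0.1% DMSO final) for 5 days. Viability read by CellTiter-Glo luminescence; inhibition calculated against DMSO and medium-only controls, and IC50 fitted by four-parameter model.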

Structure (SMILES) | IC50 [1] [nM] | IC50 [2] [nM]
C=CC(=O)N1CCN2C(=O)c3c(N4C[C@H](N(C)C)CC4(C)C)nc(-c4c(F)ccc(F)c4O)c(Cl)c3OC[C@H]2C1 (single isomer, unassigned) [Z475-2] | 107 | 15
C=CC(=O)N1CCN2C(=O)c3c(N4C[C@@H](N5CCC5)CC4(C)C)nc(-c4ccccc4F)c(Cl)c3OC[C@H]2C1 (single isomer, unassigned) [Z471-1] | 188 | 42
C=CC(=O)N1CCN2C(=O)c3c(N4CC[C@H](N(C)C)C4(C)C)nc(-c4ccccc4F)c(Cl)c3OC[C@H]2C1 [Z502-2, (6aR)-8-acryloyl-4-chloro-1-(3-(dimethylamino)-2,2-dimethylpyrrolidin-1-yl)-3-(2-fluorophenyl)-6,6a,7,8,9,10-hexahydro-12H-pyrazino[2,1-c]pyrido[3,4-f][1,4]oxazepin-12(6aH)-one] | 124 | 24.1
C=CC(=O)N1CCN2C(=O)c3c(N4C[C@H](N(C)CCOC)CC4(C)C)nc(-c4ccccc4F)c(Cl)c3OC[C@H]2C1 (single isomer, unassigned) [Z406-1] | 73 | 10
C=CC(=O)N1CCN2C(=O)c3c(N4C[C@@H](N5CCN(C)CC5)CC4(C)C)nc(-c4ccccc4F)c(Cl)c3OC[C@H]2C1 (single isomer, unassigned) [Z454-1] | 13 | 3.5
C=CC(=O)N1CCN2C(=O)c3c(N4C[C@H](N(C)CCO)CC4(C)C)nc(-c4ccccc4F)c(Cl)c3OC[C@H]2C1 (single isomer, unassigned) [Z658-2] | 180 | 31
C=CC(=O)N1CCN2C(=O)c3c(N4C[C@@H](NC)CC4(C)C)nc(-c4ccccc4F)c(Cl)c3OC[C@H]2C1 (single isomer, unassigned) [Z661-1] | 57 | 14
C=CC(=O)N1CCN2C(=O)c3c(N4C[C@@H](N(C)CC(F)F)CC4(C)C)nc(-c4ccccc4F)c(Cl)c3OC[C@H]2C1 (single isomer, unassigned) [Z659-1] | 249 | 16
C=CC(=O)N1CCN2C(=O)c3c(N4C[C@@H](N5CC(OC)C5)CC4(C)C)nc(-c4ccccc4F)c(Cl)c3OC[C@H]2C1 [Z479-1, (R)-8-acryloyl-4-chloro-3-(2-fluorophenyl)-1-((S)-4-(3-methoxyazetidin-1-yl)-2,2-dimethylpyrrolidin-1-yl)-6,6a,7,8,9,10-hexahydro-12H-pyrazino[2,1-c]pyrido[3,4-f][1,4]oxazepin-12-one] | 30 | 15
C=CC(=O)N1CCN2C(=O)c3c(N4C[C@H](N5CC(F)C5)CC4(C)C)nc(-c4ccccc4F)c(F)c3OC[C@H]2C1 [Z654-2, (R)-8-acryloyl-4-fluoro-1-((R)-4-(3-fluoroazetidin-1-yl)-2,2-dimethylpyrrolidin-1-yl)-3-(2-fluorophenyl)-6,6a,7,8,9,10-hexahydro-12H-pyrazino[2,1-c]pyrido[3,4-f][1,4]oxazepin-12-one] | 167 | 50.2
C=CC(=O)N1CCN2C(=O)c3c(N4C[C@@H](C(=O)O)CC4(C)C)nc(-c4c(O)cccc4F)c(Cl)c3OC[C@H]2C1 (single isomer, unassigned) [Z458-1] | 3560 | > 1000
C=CC(=O)N1CCN2C(=O)c3c(N4CCN(C)C[C@@H]4C)nc(-c4ccccc4F)c(Cl)c3OC[C@H]2C1 [Z407-1, (R)-8-acryloyl-4-chloro-1-((S)-2,4-dimethylpiperazin-1-yl)-3-(2-fluorophenyl)-6,6a,7,8,9,10-hexahydro-12H-pyrazino[2,1-c]pyrido[3,4-f][1,4]oxazepin-12-one] | 144 | 39
C=CC(=O)N1CCN2C(=O)c3c(N4C[C@H](N5CCN(C)CC5)CC4(C)C)nc(-c4ccccc4F)c(Cl)c3OC[C@H]2C1 (single isomer, unassigned) [Z454-2] | 67 | 16.8
C=CC(=O)N1CCN2C(=O)c3c(N4C[C@H](N5CC(C(F)(F)F)C5)CC4(C)C)nc(-c4ccccc4F)c(Cl)c3OC[C@H]2C1 (single isomer, unassigned) [Z608-1] | 1220 | 330
C=CC(=O)N1CCN2C(=O)c3c(N4CC(N(C)C)CC4(C)C)nc(-c4ccccc4F)c(Cl)c3OC[C@H]2C1 (single isomer, unassigned) [Z453-2] | 168 | 45.2

The next lines start with the values.

IC50 [1] [nM] | IC50 [2] [nM] | Structure (SMILES)
184 | 53 | C=CC(=O)N1CCN2C(=O)c3c(N4CCN(C)[C@@H](C)[C@@H]4C)nc(-c4ccccc4F)c(Cl)c3OC[C@H]2C1 [Z653, (R)-8-acryloyl-4-chloro-3-(2-fluorophenyl)-1-((2S,3S)-2,3,4-trimethylpiperazin-1-yl)-6,6a,7,8,9,10-hexahydro-12H-pyrazino[2,1-c]pyrido[3,4-f][1,4]oxazepin-12 (6aH)-one]
24 | 4.7 | C=CC(=O)N1CCN2C(=O)c3c(N4CC(N5CCN(C)CC5)CC4(C)C)nc(-c4ccccc4F)c(Cl)c3OC[C@H]2C1 (stereo partly drawn) [Z454, (6aR)-8-acryloyl-4-chloro-1-(2,2-dimethyl-4-(4-methylpiperazin-1-yl)pyrrolidin-1-yl)-3-(2-fluorophenyl)-6,6a,7,8,9,10-hexahydro-12H-pyrazino[2,1-c]pyrido[3,4-f][1,4]oxazepin-12-one]
24 | 11.2 | C=CC(=O)N1CCN2C(=O)c3c(N4CC(N(C)CCO)CC4(C)C)nc(-c4ccccc4F)c(Cl)c3OC[C@H]2C1 (stereo partly drawn) [Z658, (6aR)-8-acryloyl-4-chloro-3-(2-fluorophenyl)-1-(4-((2-hydroxyethyl)(methyl)amino)-2,2-dimethylpyrrolidin-1-yl)-6,6a,7,8,9,10-hexahydro-12H-pyrazino[2,1-c]pyrido[3,4-f][1,4]oxazepin-12-one]
13 | 4 | C=CC(=O)N1CCN2C(=O)c3c(N4C[C@@H](O)CC4(C)C)nc(-c4c(N)cccc4F)c(F)c3OC[C@H]2C1 [Z481, (6aR)-8-acryloyl-3-(2-amino-6-fluorophenyl)-4-fluoro-1-((S)-4-hydroxy-2,2-dimethylpyrrolidin-1-yl)-6,6a,7,8,9,10-hexahydro-12H-pyrazino[2,1-c]pyrido[3,4-f][1,4]oxazepin-12-one]
29 | 13.1 | C=CC(=O)N1CCN2C(=O)c3c(N4CC(NC)CC4(C)C)nc(-c4ccccc4F)c(Cl)c3OC[C@H]2C1 (stereo partly drawn) [Z661, (6aR)-8-acryloyl-4-chloro-1-(2,2-dimethyl-4-(methylamino)pyrrolidin-1-yl)-3-(2-fluorophenyl)-6,6a,7,8,9,10-hexahydro-12H-pyrazino[2,1-c]pyrido[3,4-f][1,4]oxazepin-12-one]
523 | 179 | C=CC(=O)N1CCN2C(=O)c3c(N4C[C@@H](C)N(C)C[C@@H]4C)nc(-c4ccccc4F)c(Cl)c3OC[C@H]2C1 [Z464]
42 | 7 | C=CC(=O)N1CCN2C(=O)c3c(N4CCN(C)C[C@@H]4C)nc(-c4c(N)cccc4F)c(Cl)c3OC[C@H]2C1 [Z503, (6aR)-8-acryloyl-3-(2-amino-6-fluorophenyl)-4-chloro-1-((S)-2,4-dimethylpiperazin-1-yl)-6,6a,7,8,9,10-hexahydro-12H-pyrazino[2,1-c]pyrido[3,4-f][1,4]oxazepin-12-one]
11 | 1 | C=CC(=O)N1CCN2C(=O)c3c(N4CC(N5CCN(C)CC5)CC4(C)C)nc(-c4c(O)cccc4F)c(Cl)c3OC[C@H]2C1 (stereo partly drawn) [Z467, (6aR)-8-acryloyl-4-chloro-1-(2,2-dimethyl-4-(4-methylpiperazin-1-yl)pyrrolidin-1-yl)-3-(2-fluoro-6-hydroxyphenyl)-6,6a,7,8,9,10-hexahydro-12H-pyrazino[2,1-c]pyrido[3,4-f][1,4]oxazepin-12-one]
73 | 7 | C=CC(=O)N1CCN2C(=O)c3c(N4CCN(C)C[C@@H]4C)nc(-c4c(O)cccc4F)c(Cl)c3OC[C@H]2C1 [Z51, (6aR)-8-acryloyl-4-chloro-1-((S)-2,4-dimethylpiperazin-1-yl)-3-(2-fluoro-6-hydroxyphenyl)-6,6a,7,8,9,10-hexahydro-12H-pyrazino[2,1-c]pyrido[3,4-f][1,4]oxazepin-12-one]
85 | 24.5 | C=CC(=O)N1CCN2C(=O)c3c(N4CC(N5CCC(F)(F)C5)CC4(C)C)nc(-c4ccccc4F)c(Cl)c3OC[C@H]2C1 (stereo partly drawn) [Z532, (6aR)-8-acryloyl-4-chloro-1-(3,3-difluoro-5′,5′-dimethyl-[1,3′-bipyrrolidin]-1′-yl)-3-(2-fluorophenyl)-6,6a,7,8,9,10-hexahydro-12H-pyrazino[2,1-c]pyrido[3,4-f][1,4]oxazepin-12-one]
145 | 12 | C=CC(=O)N1CCN2C(=O)c3c(N4CCOC(C)(C)C4)nc(-c4c(O)cccc4F)c(Cl)c3OC[C@H]2C1 [Z37, (6aR)-8-acryloyl-4-chloro-1-(2,2-dimethylmorpholino)-3-(2-fluoro-6-hydroxyphenyl)-6,6a,7,8,9,10-hexahydro-12H-pyrazino[2,1-c]pyrido[3,4-f][1,4]oxazepin-12-one]
322 | 73 | C=CC(=O)N1CCN2C(=O)c3c(NC45CC(C4)C5)nc(-c4c(O)cccc4F)c(Cl)c3OC[C@H]2C1 [Z41, (6aR)-8-acryloyl-1-(bicyclo [1.1.1]pentan-1-ylamino)-4-chloro-3-(2-fluoro-6-hydroxyphenyl)-6,6a,7,8,9,10-hexahydro-12H-pyrazino[2,1-c]pyrido[3,4-f][1,4]oxazepin-12-one]
